target: T1, human SSTR5 (Homo sapiens, UniProt P35346); test: Inositol phosphate accumulation assay (IP1 HTRF, antagonist mode); format: cell-based; details: CHO-K1 cells co-expressing human SSTR5 with Gqi5, SST28 agonist at concentration generating 90% of full activation
T1 construct: expressed in transfected cells
Excerpt: CHO-K1 cells stably co-expressing human SSTR5 with Gqi5 were developed using Jump-In technology from Thermo-Fisher. Gqi5 is the mouse G alpha q protein, that was modified to interact with Gi-coupled GPCRs as described previously (Coward, P.; Chan, S. D.; Wada, H. G.; Humphries, G. M.; Conklin, B. R. Chimeric G proteins Allow a High-Throughput Signaling Assay of Gi-Coupled Receptors. Anal Biochem. 1999, 270(2),242-248).
Co-expression of Gqi5 with SSTR5 allowed monitoring of SSTR5 activity by following IP1 accumulation. The assay was performed in a 384-well plate format using the IP1 assay kit from Cis-Bio in an antagonist mode, i.e., pre-incubation with antagonist following by receptor activation by agonist at a concentration generating 90% of full activation. Frozen cells expressing human SSTR5 were thawed, washed, and then plated in DMEM supplemented with 10% FBS and non-essential amino acids. 40 μL of 2.5×10^5 cells/mL were plated on a Poly D-Lysine coated 384-well white plate. The cells were then incubated for 16 hr. at 37° C/5% CO2. After 16 hour the medium was removed, and 10 μL of stimulation buffer was added to the cells. Test compounds were dissolved in DMSO at concentrations 2000-fold that of the final assay concentrations. 7.5 nLcompound solutions were transferred to the cell plates using a Labcyte Echo® acoustic liquid handler. The plates were then incubated for 15 minutes at 37° C/5%CO2. After the first incubation, 5 μL of 30 nM SST28 were added to the cells, and the cells were incubated for 90 minutes at 37° C/5%CO2. 5 μL of detection buffer (prepared as described in the IP-1 kit) was added to each well, and the plates were incubated at RT for 1 hour.
TR-FRET was measured using a ClarioSTAR plate reader, calculating the ratio between emissions at 665 nm and 620 nm (HTRF ratio). The HTRF ratio for positive (Max) and negative (Min) controls were used to normalize HTRF data and generate values for % inhibition. IC50 and maximal inhibition values were determined using a standard 4-parameter fit.

T1 sequence (P35346 whole entry): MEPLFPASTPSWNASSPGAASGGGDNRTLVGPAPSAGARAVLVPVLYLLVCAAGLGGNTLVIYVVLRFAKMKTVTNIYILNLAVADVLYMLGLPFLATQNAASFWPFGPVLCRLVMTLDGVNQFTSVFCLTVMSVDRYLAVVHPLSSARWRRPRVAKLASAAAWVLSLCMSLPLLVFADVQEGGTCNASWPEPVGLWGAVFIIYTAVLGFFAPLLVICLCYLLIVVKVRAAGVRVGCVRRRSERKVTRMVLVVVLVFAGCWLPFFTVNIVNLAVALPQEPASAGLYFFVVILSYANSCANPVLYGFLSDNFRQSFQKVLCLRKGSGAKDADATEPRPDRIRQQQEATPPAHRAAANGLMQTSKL

Q: `CCOc1cc(-c2ccc(F)cc2)c(C2CC2)cc1CN1CCC2(CC1)CN(c1ccc(C(=O)NCCCS(=O)(=O)O)cc1)C(=O)O2` [Example 63, 3-(4-(8-((2-cyclopropyl-5-ethoxy-4′-fluoro-[1,1′-biphenyl]-4-yl)methyl)-2-oxo-1-oxa-3,8-diazaspiro[4.5]decan-3-yl)benzamido)propane-1-sulfonic acid] was tested. Which IC50 did it give?
A: ≤ 100 nM

Q: How did the IC50 turn out when `CCOc1cc(C(=O)OC)c(C2CC2)cc1CN1CCC2(CC1)CC(=O)N(c1ccc(C(=O)NCCOCCOCCO)cc1)C2` [Example 49, methyl 2-cyclopropyl-5-ethoxy-4-((2-(4-((2-(2-(2-hydroxyethoxy)ethoxy)ethyl)carbamoyl)phenyl)-3-oxo-2,8-diazaspiro[4.5]decan-8-yl)methyl)benzoate] was run?
A: 100 to 1000 nM

Q: `CCOc1cc(-c2nc(C)no2)c(C2CC2)cc1CN1CCC2(CC1)CN(c1ccc(C(=O)NCCCS(=O)(=O)O)cc1)C(=O)N2` [Example 68, 3-(4-(8-(5-cyclopropyl-2-ethoxy-4-(3-methyl-1,2,4-oxadiazol-5-yl)benzyl)-2-oxo-1,3,8-triazaspiro[4.5]decan-3-yl)benzamido)propane-1-sulfonic acid] was tested. Which IC50 did it give?
A: 100 to 1000 nM

Q: Which IC50 does the source give for `CCOc1cc(CN2CCC3(CC2)CN(c2ccc(C(=O)NC[C@H](O)[C@@H](O)[C@H](O)[C@H](O)COC(=O)CCC(=O)O)cc2)C(=O)O3)cc(OCC)c1-c1ccc(F)cc1` [Example 2, 4-(((2R,3R,4R,5S)-6-(4-(8-((2,6-diethoxy-4′-fluoro-[1,1′-biphenyl]-4-yl)methyl)-2-oxo-1-oxa-3,8-diazaspiro[4.5]decan-3-yl)benzamido)-2,3,4,5-tetrahydroxyhexyl)oxy)-4-oxobutanoic acid] here?
A: 100 to 1000 nM

Q: With `CCOc1cc(-c2ccc(F)cc2F)c(C2CC2)cc1CN1CCC2(CC1)CN(c1ccc(C(=O)NCCOCCO)cc1)C(=O)N2` [Example 72, 4-(8-((2-cyclopropyl-5-ethoxy-2′,4′-difluoro-[1,1′-biphenyl]-4-yl)methyl)-2-oxo-1,3,8-triazaspiro[4.5]decan-3-yl)-N-(2-(2-hydroxyethoxy)ethyl)benzamide] as the compound, how does the IC50 read?
A: ≤ 100 nM

Q: With `CCOc1cc(C(=O)OCc2oc(=O)oc2C)c(C2CC2)cc1CN1CCC2(CC1)CC(=O)N(c1ccc(C(=O)NC[C@H](O)[C@@H](O)[C@H](O)[C@H](O)CO)cc1)C2` [compound 24] as the compound, how does the IC50 read?
A: > 5000 nM

Q: Which IC50 does the source give for `CCOc1cc(-c2nc(C)no2)c(C2CC2)cc1CN1CCC2(CC1)CN(c1ccc(C(=O)NCCOCCO)cc1)C(=O)N2` [Example 67, 4-(8-(5-cyclopropyl-2-ethoxy-4-(3-methyl-1,2,4-oxadiazol-5-yl)benzyl)-2-oxo-1,3,8-triazaspiro[4.5]decan-3-yl)-N-(2-(2-hydroxyethoxy)ethyl)benzamide] here?
A: 100 to 1000 nM

Q: With `CCOc1cc(-c2ccc(F)cc2)c(C2CC2)cc1CN1CCN(C(=O)Oc2ccc(C(=O)NC[C@H](O)[C@@H](O)[C@H](O)[C@H](O)CO)cc2)CC1` [compound 94] as the compound, how does the IC50 read?
A: ≤ 100 nM

Q: Which IC50 does the source give for `CCOc1cc(C(=O)OC)c(C2CC2)cc1CN1CCN(C(=O)Cc2ccc(C(=O)NC[C@H](O)[C@@H](O)[C@H](O)[C@H](O)CO)cc2)CC1` [Example 97, methyl 2-cyclopropyl-5-ethoxy-4-((4-(2-(4-(((2S,3R,4R,5R)-2,3,4,5,6-pentahydroxyhexyl)carbamoyl)phenyl)acetyl)piperazin-1-yl)methyl)benzoate] here?
A: > 5000 nM

Q: `CCOc1cc(C(=O)OC)c(C2CC2)cc1CN1CCC2(CC1)CC(=O)N(c1ccc(C(=O)NCCCCS(=O)(=O)O)cc1)C2` [Example 31, 4-(4-(8-(5-cyclopropyl-2-ethoxy-4-(methoxycarbonyl)benzyl)-3-oxo-2,8-diazaspiro[4.5]decan-2-yl)benzamido)butane-1-sulfonic acid] was tested. Which IC50 did it give?
A: > 5000 nM

Q: For `CCOc1cc(C(=O)OC)c(C2CC2)cc1CN1CCC2(CC1)CC(=O)N(c1ccc(C(=O)NC(CO)(CO)CO)cc1)C2` [Example 21, methyl 2-cyclopropyl-4-((2-(4-((1,3-dihydroxy-2-(hydroxymethyl)propan-2-yl)carbamoyl)phenyl)-3-oxo-2,8-diazaspiro[4.5]decan-8-yl)methyl)-5-ethoxybenzoate], which IC50 is on record?
A: > 5000 nM

Q: `CCOc1cc(C(=O)OC)c(C2CC2)cc1CN1CCC2(CC1)CC(=O)N(c1ccc(C(=O)NCCNC(N)=O)cc1)C2` [Example 38, methyl 2-cyclopropyl-5-ethoxy-4-((3-oxo-2-(4-((2-ureidoethyl)carbamoyl)phenyl)-2,8-diazaspiro[4.5]decan-8-yl)methyl)benzoate] was tested. Which IC50 did it give?
A: 100 to 1000 nM

Q: For `CCOc1cc(-c2ccc(F)cc2)c(C2CC2)cc1CN1CCC2(CC1)CN(c1ccc(C(=O)NCCCNC(N)=O)cc1)C(=O)O2` [Example 62, 4-(8-((2-cyclopropyl-5-ethoxy-4′-fluoro-[1,1′-biphenyl]-4-yl)methyl)-2-oxo-1-oxa-3,8-diazaspiro[4.5]decan-3-yl)-N-(3-ureidopropyl)benzamide], which IC50 is on record?
A: ≤ 100 nM

Q: `CCOc1cc(S(C)(=O)=O)c(C2CC2)cc1CN1CCC2(CC1)CN(c1ccc(S(=O)(=O)N(Cc3ccc(OC)cc3)Cc3ccc(OC)cc3)cc1)C(=O)N2` [compound 86, 4-[8-[(5-cyclopropyl-2-ethoxy-4-methylsulfonyl-phenyl)methyl]-2-oxo-1,3,8-triazaspiro[4.5]decan-3-yl]-N,N-bis[(4-methoxyphenyl)methyl]benzenesulfonamide] was tested. Which IC50 did it give?
A: ≤ 100 nM

Q: For `CCOc1cc(-c2ccc(F)cc2)c(C2CC2)cc1CN1CCC2(CC1)CN(c1ccc(S(=O)(=O)NCCOCCOCCO)cc1)C(=O)O2` [Example 83, 4-(8-((2-cyclopropyl-5-ethoxy-4′-fluoro-[1,1′-biphenyl]-4-yl)methyl)-2-oxo-1-oxa-3,8-diazaspiro[4.5]decan-3-yl)-N-(2-(2-(2-hydroxyethoxy)ethoxy)ethyl)benzenesulfonamide], which IC50 is on record?
A: ≤ 100 nM

Q: `CCOc1cc(-c2ccc(F)cn2)c(C2CC2)cc1CN1CCC2(CC1)CN([C@H]1CC[C@@](C)(C(=O)NCCOCCO)CC1)C(=O)O2` [compound 89] was tested. Which IC50 did it give?
A: 100 to 1000 nM

Q: How did the IC50 turn out when `CCOc1cc(CN2CCC3(CC2)CN(c2ccc(C(=O)NC[C@H](O)[C@@H](O)[C@H](O)[C@H](O)CO)cc2)C(=O)O3)cc(CO)c1-c1ccc(F)cc1` [Example 3, 4-(8-((2-ethoxy-4′-fluoro-6-(hydroxymethyl)-[1,1′-biphenyl]-4-yl)methyl)-2-oxo-1-oxa-3,8-diazaspiro[4.5]decan-3-yl)-N-((2S,3R,4R,5R)-2,3,4,5,6-pentahydroxyhexyl)benzamide] was run?
A: > 5000 nM

Q: Which IC50 does the source give for `CCOc1cc(C(=O)OC)c(C2CC2)cc1CN1CCC2(CC1)CC(=O)N(c1ccc(C(=O)NCCS(N)(=O)=O)cc1)C2` [Example 50, methyl 2-cyclopropyl-5-ethoxy-4-((3-oxo-2-(4-((2-sulfamoylethyl)carbamoyl)phenyl)-2,8-diazaspiro[4.5]decan-8-yl)methyl)benzoate] here?
A: 100 to 1000 nM

Q: How did the IC50 turn out when `CCOc1cc(-c2ccc(F)cn2)c(C2CC2)cc1CN1CCC2(CC1)CN(c1ccc(C(=O)NCCOCCO)cc1)C(=O)N2` [Example 74, 4-(8-(5-cyclopropyl-2-ethoxy-4-(5-fluoropyridin-2-yl)benzyl)-2-oxo-1,3,8-triazaspiro[4.5]decan-3-yl)-N-(2-(2-hydroxyethoxy)ethyl)benzamide] was run?
A: ≤ 100 nM

Q: Which IC50 does the source give for `CCOc1cc(C(=O)OC)c(C2CC2)cc1CN1CCC2(CC1)CN(c1ccc(C(=O)NCCCNC(N)=O)cc1)C(=O)O2` [Example 57, methyl 2-cyclopropyl-5-ethoxy-4-((2-oxo-3-(4-((3-ureidopropyl)carbamoyl)phenyl)-1-oxa-3,8-diazaspiro [4.5]decan-8-yl)methyl)benzoate] here?
A: ≤ 100 nM

Q: For `CCOc1cc(C(=O)OC)c(C2CC2)cc1CN1CCC2(CC1)CC(=O)N(c1ccc(C(=O)NCCOCCO)cc1)C2` [Example 26, methyl 2-cyclopropyl-5-ethoxy-4-((2-(4-((2-(2-hydroxyethoxy)ethyl)carbamoyl)phenyl)-3-oxo-2,8-diazaspiro[4.5]decan-8-yl)methyl)benzoate], which IC50 is on record?
A: 100 to 1000 nM

Q: How did the IC50 turn out when `CCOc1cc(-c2ccc(F)cc2)c(C2CC2)cc1CN1CCC2(CC1)CN(C13CC(C(=O)NCCOCCO)(C1)C3)C(=O)O2` [compound 92, 3-(8-((2-cyclopropyl-5-ethoxy-4′-fluoro-[1,1′-biphenyl]-4-yl)methyl)-2-oxo-1-oxa-3,8-diazaspiro [4.5]decan-3-yl)-N-(2-(2-hydroxyethoxy)ethyl)bicyclo [1.1.1] pentane-1-carboxamide] was run?
A: ≤ 100 nM

Q: `CCOc1cc(C(=O)OC)c(C2CC2)cc1CN1CCC2(CC1)CN(c1ccc(C(=O)NCCCS(=O)(=O)O)cc1)C(=O)O2` [Example 58, 3-(4-(8-(5-cyclopropyl-2-ethoxy-4-(methoxycarbonyl)benzyl)-2-oxo-1-oxa-3,8-diazaspiro[4.5]decan-3-yl)benzamido)propane-1-sulfonic acid] was tested. Which IC50 did it give?
A: ≤ 100 nM
